The target in the first assay is T1, human mGluR2 receptor (Homo sapiens, UniProt Q14416).
T1 construct: expressed in transfected cells; host or cells: CHO cells
T1 sequence (Q14416 19-872): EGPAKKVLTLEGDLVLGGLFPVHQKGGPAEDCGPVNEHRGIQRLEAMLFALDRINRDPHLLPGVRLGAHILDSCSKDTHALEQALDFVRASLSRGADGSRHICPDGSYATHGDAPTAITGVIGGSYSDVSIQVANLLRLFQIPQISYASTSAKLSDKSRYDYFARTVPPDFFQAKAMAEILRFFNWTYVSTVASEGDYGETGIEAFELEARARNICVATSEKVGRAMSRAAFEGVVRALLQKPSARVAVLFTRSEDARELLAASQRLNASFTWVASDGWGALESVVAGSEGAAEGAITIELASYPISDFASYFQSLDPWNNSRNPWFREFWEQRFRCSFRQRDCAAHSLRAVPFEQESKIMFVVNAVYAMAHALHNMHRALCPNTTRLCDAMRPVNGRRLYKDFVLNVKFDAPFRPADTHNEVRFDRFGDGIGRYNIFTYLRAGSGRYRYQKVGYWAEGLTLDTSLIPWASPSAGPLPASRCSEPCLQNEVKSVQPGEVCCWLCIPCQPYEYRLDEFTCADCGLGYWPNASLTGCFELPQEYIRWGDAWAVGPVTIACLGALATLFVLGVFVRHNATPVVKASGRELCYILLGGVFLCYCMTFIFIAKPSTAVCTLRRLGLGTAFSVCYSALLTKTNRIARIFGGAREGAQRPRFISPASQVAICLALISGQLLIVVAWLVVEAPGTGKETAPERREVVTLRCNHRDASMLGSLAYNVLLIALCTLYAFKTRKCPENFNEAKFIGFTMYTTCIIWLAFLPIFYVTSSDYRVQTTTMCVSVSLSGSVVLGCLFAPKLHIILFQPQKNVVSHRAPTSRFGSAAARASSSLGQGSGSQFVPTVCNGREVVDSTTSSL
As to the kind of experiment: [35S]GTPγS binding assay, positive allosteric modulation (GTPγS-PAM) in presence of EC20 glutamate. Conditions: in presence of glutamate at EC20; average pEC50 if more experiments; ‡ means tested once. It counts as biochemical. On the procedure:
[^35S]GTPγS Binding Assay
The [^35S]GTPγS binding assay is a functional membrane-based assay used to study G-protein coupled receptor (GPCR) function whereby incorporation of a non-hydrolysable form of GTP, [^35S]GTPγS (guanosine 5′-triphosphate, labelled with […] ^35S), is measured. The G-protein α subunit catalyzes the exchange of guanosine 5′-diphosphate (GDP) by guanosine triphosphate (GTP) and on activation of the GPCR by an agonist, [^35S]GTPγS, becomes incorporated and cannot be cleaved to continue the exchange cycle (Harper (1998) Current Protocols in Pharmacology 2.6.1-10, John Wiley & Sons, Inc.). […] Here we describe the use of the [^35S]GTPγS binding assay using membranes from cells transfected with the human mGluR2 receptor and adapted from Schaffhauser et al. ((2003) Molecular Pharmacology 4:798-810) for the detection of the positive allosteric modulation (PAM) properties of the compounds of this invention.
CHO-cells were cultured to pre-confluence and stimulated with 5 mM butyrate for 24 h, prior to washing in PBS, and then collected by scraping in homogenisation buffer (50 mM Tris-HCl buffer, pH 7.4, 4° C.). Cell lysates were homogenized briefly using an ultra-turrax homogenizer. The homogenate was centrifuged at 16,000 RPM (Sorvall RC-5C plus rotor SS-34) for 10 minutes and the supernatant discarded. The pellet was resuspended in 5 mM Tris-HCl, pH 7.4 and centrifuged again (18,000 RPM, 20 min, 4° C.). The final pellet was resuspended in 50 mM Tris-HCl, pH 7.4 and stored at −80° C. in appropriate aliquots before use. Protein concentration was determined by the Bradford method (Bio-Rad, USA) with bovine serum albumin as standard.
Measurement of mGluR2 positive allosteric modulatory activity of test compounds was performed as follows. Test compounds and glutamate were diluted in assay buffer containing 10 mM HEPES acid, 10 mM HEPES salt, pH 7.4, 100 mM NaCl, 3 mM MgCl2 and 10 μM GDP. Human mGlu2 receptor-containing membranes were thawed on ice and diluted in assay buffer supplemented with 14 μg/ml saponin. Membranes were pre-incubated with compound alone or together with a predefined (˜EC20) concentration of glutamate (PAM assay) for 30 min at 30° C. After addition of [^35S]GTPγS (f.c. 0.1 nM) microplates were shaken briefly and further incubated to allow [^35S]GTPγS incorporation on activation (30 minutes, 30° C.). Final assay mixtures contained 7 μg of membrane protein in 10 mM HEPES acid, 10 mM HEPES salt, pH 7.4, 100 mM NaCl, 3 mM MgCl2, 10 µM GDP and 10 μg/ml saponin. Total reaction volume was 200 μl. Reactions were terminated by rapid filtration through Unifilter-96 GF/B filter plates (Packard, Meriden, Conn.) using a 96-well Packard filtermate harvester. Filters were washed 6 times with ice-cold 10 mM NaH2PO4/10 mM Na2HPO4, pH 7.4. Filters were then air-dried, and 40 μl of liquid scintillation cocktail (Microscint-O) was added to each well. Membrane-bound radioactivity was counted in a Microplate Scintillation and Luminescence Counter from Packard.
The concentration-response curves of representative compounds of the present invention-obtained in the presence of EC20 of mGluR2 agonist glutamate to determine positive allosteric modulation (PAM)—were generated using the Lexis software interface (developed at J&J).
(GTPγS resists hydrolysis and so accumulates on activated G proteins.)
As to `Cc1cccnc1OC1CCN(c2ccn3c(CC4CC4)nnc3c2C(F)(F)F)CC1` [compound 68], the “GTPγS - hR2 PAM pEC50” value amounted to 7.55.
Still for that read-out and setting: the same measure for `CC1(c2ccccc2)CCN(c2ccn3c(CC4CC4)nnc3c2Cl)CC1` [compound 133]: 7.05; for `COc1cccc(F)c1N1CCN(c2ccn3c(CC4CC4)nnc3c2Cl)CC1` [compound 302]: 6.55.
Turning to `FC(F)(F)c1c(N2CCC3(CC2)OCc2ccccc23)ccn2c(CC3CC3)nnc12` [compound 77], the “GTPγS - hR2 PAM pEC50” value is given as 7.68‡.
Turning to `CC1(c2ccccc2F)CCN(c2ccn3c(CC4CC4)nnc3c2C(F)(F)F)CC1` [compound 193], the “GTPγS - hR2 PAM pEC50” value is listed as 8.26.
Still for that read-out and setting: the same measure for `FC(F)(F)c1c(N2CCC(c3ccccc3)(N3CCOCC3)CC2)ccn2c(CC3CC3)nnc12` [compound 62]: 6.41; for `CCOCc1nnc2c(C(F)(F)F)c(N3CCC(F)(c4ccccc4)CC3)ccn12` [compound 141]: 6.95; for `Cc1c(N2CCC3(CC2)OC(C)(C)c2ccccc23)ccn2c(CC3CC3)nnc12` [compound 154]: 7.13.
On to `Cc1cccnc1OC1CCN(c2ccn3c(COC(C)C)nnc3c2C(F)(F)F)CC1` [compound 162], for which the “GTPγS - hR2 PAM pEC50” value is 6.93.
Still for that read-out and setting: the same measure for `CCCc1nnc2c(Cl)c(N3CCC4(CC3)OCc3c(F)cccc34)ccn12` [compound 106]: 6.45; for `CC(C)OCc1nnc2c(Cl)c(N3CCC(c4ccccc4)CC3)ccn12` [compound 135]: 6.77; for `FC(F)(F)c1c(N2CCN(CCc3ccccc3)CC2)ccn2c(CC3CC3)nnc12` [compound 216]: 6.68.
In the case of `Cc1cc(OC2CCN(c3ccn4c(CC5CC5)nnc4c3C(F)(F)F)CC2)ccn1` [compound 165], the “GTPγS - hR2 PAM pEC50” value worked out at 6.41.
The same measure, in the same setting: the same measure for `Clc1c(N2CCN(c3ccccc3)CC2)ccn2c(CC3CC3)nnc12` [compound 99]: 6.03; for `CC1CN(c2ccn3c(CC4CC4)nnc3c2C(F)(F)F)CCC1c1ccccc1` (single isomer, unassigned) [compound 212]: 8.08; for `CC1CN(c2ccn3c(CC4CC4)nnc3c2C(F)(F)F)CCC1c1ccccc1` (centres unmarked) [compound 169]: 7.77‡.
On to `CCc1nnc2c(C(F)(F)F)c(N3CCC4(CC3)COc3ccccc34)ccn12` [compound 89], for which the “GTPγS - hR2 PAM pEC50” value is 6.46‡.
The same measure, in the same setting: as for `FC(F)(F)c1c(N2CCC(c3cccnc3)CC2)ccn2c(CC3CC3)nnc12` [compound 198], the figure is 6.29‡; as for `Fc1ccc(COC2CCN(c3ccn4c(CC5CC5)nnc4c3C(F)(F)F)CC2)c(F)c1` [compound 279], 7.24‡; as for `FC(F)(F)c1c(N2CCC3(CC2)COc2ccccc2O3)ccn2c(CC3CC3)nnc12` [compound 79], 7.28.
On to `FC(F)(F)c1cccc(CN2CCN(c3ccn4c(CC5CC5)nnc4c3Cl)CC2)c1` [compound 218], for which the “GTPγS - hR2 PAM pEC50” value is on record as 6.05‡.
The same measure, in the same setting: the same measure for `Cl.Fc1cccc2c1COC21CCN(c2ccn3c(CC4CC4)nnc3c2Cl)CC1` [compound 108]: 6.91‡; for `CC1(C)OC2(CCN(c3ccn4c(CC5CC5)nnc4c3Cl)CC2)c2ccccc21` [compound 104]: 7.7; for `Cc1cccnc1OC1CCN(c2ccn3c(CC(F)(F)F)nnc3c2Cl)CC1` [compound 59]: 7.17.
Same read-out and setting: the same measure for `Clc1c(N2CCN(c3coc4ccccc34)CC2)ccn2c(CC3CC3)nnc12` [compound 157]: 6.18; for `COc1cccnc1N1CCN(c2ccn3c(CC4CC4)nnc3c2C(F)(F)F)CC1` [compound 92]: 6.87; for `N#Cc1c(N2CCC(c3ccccc3)(C(F)(F)F)CC2)ccn2c(CC3CC3)nnc12` [compound 120]: 6.31.
`CCCc1nnc2c(Cl)c(N3CCC4(CC3)OCc3ccccc34)ccn12` [compound 93]: the “GTPγS - hR2 PAM pEC50” value is given as 6.53.
For `CC1(C)CN(c2ccn3c(CC4CC4)nnc3c2C(F)(F)F)CCN1c1ccccc1` [compound 72], the “GTPγS - hR2 PAM pEC50” value is on record as 7.06.
On the same count and under the same terms, the same measure for `CCOCc1nnc2c(Cl)c(N3CCC(c4c(F)cc(F)cc4OC)CC3)ccn12` [compound 85]: 8.06; for `COc1cccc(F)c1C1CCN(c2ccn3c(CC(F)(F)F)nnc3c2C#N)CC1` [compound 51]: 8.35‡.
Still for that read-out and setting: the same measure for `Fc1ccc(N2CC3(CCN(c4ccn5c(CC6CC6)nnc5c4C(F)(F)F)CC3)C2)c(F)c1` [compound 201]: 6.9.
On the same count and under the same terms, as for `FC(F)(F)c1c(N2CCC(Oc3ccccn3)CC2)ccn2c(CC3CC3)nnc12` [compound 124], the figure is 6.98; as for `FC(F)(F)c1c(N2CCC(NCc3ccccc3)CC2)ccn2c(CC3CC3)nnc12` [compound 230], 5.61‡.
`CCc1nnc2c(Cl)c(N3CCC4(CC3)OCc3ccccc34)ccn12` [compound 102]: the “GTPγS - hR2 PAM pEC50” value was 6.5.
The same measure, in the same setting: as for `CCOCc1nnc2c(Cl)c(N3CCC(c4c(F)ccc(F)c4OC)CC3)ccn12` [compound 86], the figure is 7.95.
Still for that read-out and setting: as for `Fc1ccc(OC2CCN(c3ccn4c(CC5CC5)nnc4c3C(F)(F)F)CC2)c(F)c1` [compound 315], the figure is 7.24; as for `Cc1c(N2CCC(c3ccccc3)(C(F)(F)F)CC2)ccn2c(CC3CC3)nnc12` [compound 187], 6.19.
`CCc1nnc2c(C#N)c(N3CCC(c4cccc(F)c4OC)CC3)ccn12` [compound 21]: the “GTPγS - hR2 PAM pEC50” value was 6.61.
With `CC1(C)CN(c2ccn3c(CC4CC4)nnc3c2Cl)CCN1c1ccccc1` [compound 105], the “GTPγS - hR2 PAM pEC50” value was 6.17‡.
Same read-out and setting: the same measure for `COc1cnc(N2CCN(c3ccn4c(CC5CC5)nnc4c3C(F)(F)F)CC2)nc1` [compound 90]: 6.61; for `N#Cc1c(N2CCN(Cc3cccc(C(F)(F)F)c3)CC2)ccn2c(CC(F)(F)F)nnc12` [compound 60]: 6.33; for `Clc1c(N2CCC(Oc3cccnc3)CC2)ccn2c(CC3CC3)nnc12` [compound 170]: 5.84‡.
The same measure, in the same setting: the same measure for `FC(F)(F)c1c(N2CCC3(C=Cc4ccccc43)CC2)ccn2c(CC3CC3)nnc12` [compound 260]: 7.47; for `N#Cc1c(N2CCC(c3ccccc3)CC2)ccn2c(CN3CCCC3)nnc12` [compound 36]: 5.95‡; for `FC(F)(F)c1c(N2CCN(c3ncccn3)CC2)ccn2c(CC3CC3)nnc12` [compound 64]: 6.65.
In the case of `CCOCc1nnc2c(Cl)c(N3CCN(c4ccccc4)C(C)(C)C3)ccn12` [compound 103], the “GTPγS - hR2 PAM pEC50” value was 5.63‡.
With `CCCCc1nnc2c(C(F)(F)F)c(N3CCC(c4ccc(F)cc4F)CC3)ccn12` [compound 327], the “GTPγS - hR2 PAM pEC50” value is reported as 7.71‡.

Staying with this assay, now noted: in presence of glutamate at EC20; average pEC50 if more experiments; ‡ means tested once; read-out: GTPγS - hR2 PAM pEC50 (converted).
Regarding `CC1(C)OC2(CCN(c3ccn4c(CC5CC5)nnc4c3C(F)(F)F)CC2)c2ccc(F)cc21` [compound 200, 1′-[3-(Cyclopropylmethyl)-8-(trifluoromethyl)-1,2,4-triazolo[4,3-a]pyridin-7-yl]-5-fluoro-3,3-dimethyl-spiro[isobenzofuran-1(3H),4′-piperidine]], the EC50 was 3.55 nM.
The same measure, in the same setting: as for `FC(F)(F)c1c(N2CCC3(CC2)OC(F)(F)c2ccccc23)ccn2c(CC3CC3)nnc12` [compound 147, 1′-[3-cyclopropylmethyl-8-(trifluoromethyl)[1,2,4]triazolo[4,3-a]pyridin-7-yl]-3,3-difluoro-3H-spiro[benzo[c]furan-1,4′-piperidine]], the figure is 245 nM.

Source of the values: US10071095B2, “1,2,4-triazolo [4,3-A] pyridine derivatives and their use for the treatment of neurological and psychiatric disorders” (JANSSEN PHARMACEUTICALS, INC., priority 2009, dated 2018).
